Measured values reported in ChEMBL document CHEMBL3988442, “University of Dundee, Small-Polar-MMV Screening Library” (2021).
Values joined by “and” are separate entries in the source; they are usually repeats but may differ in a detail not shown here. Identical values can stand only once.

Test: In vitro enzyme assay to detect hydrolysis of chlorophenol red-beta-D-[…] directly proportional to the number of Toxoplasma stably expressing beta-galactosidase
Type: functional, organism-based, Toxoplasma gondii
Conditions: for IC50: Toxoplasma gondii

`CCC(C)Oc1ccc(CNCCc2c[nH]cn2)cc1Cl` (configuration not stated) showed an IC50 of 29 µM.
In the case of `CCc1cc(N2CCC(NCCc3ccccc3F)CC2)nc(C)n1`, the pIC50 is reported as 4.968 and the IC50 is reported as 8.65 µM.
Work on `Cn1ccc2ccc(NS(=O)(=O)C3CC3)cc2c1=O` yielded an IC50 greater than 50.1 µM.
With `CC(=O)Nc1ncc(S(=O)(=O)Nc2ccc(C)cc2)s1` the IC50 was greater than 50.1 µM.
For `CCCc1nc(NCCCn2ccnc2)c2c(n1)c(C)nn2CC`, the IC50 was greater than 50.1 µM.
Work on `CCOCCNC(=O)c1cccnc1Sc1cc(OC)ccc1OC` yielded an IC50 greater than 50.1 µM.
Molecule `O=C([C@@H]1CCO[C@@H]2CCN(Cc3ccc(F)cc3)C[C@H]21)N1CCCCO1` has an IC50 greater than 50.1 µM.
Work on `CCC(CC)(CC)SCC(=O)N1CCNC(=O)C1` yielded an IC50 greater than 50.1 µM.
Work on `Cc1ccnc(NC(=O)N(C)Cc2ccncc2)c1` yielded an IC50 greater than 50.1 µM.
In the case of `OC1CCN(c2ccnc(NCCc3ccccc3Cl)n2)C1` (configuration not stated), the pIC50 is reported as 5.797 and the IC50 is reported as 2.35 µM.
Work on `O=C(N[C@H]1COC[C@@H]1N1CCCCC1)c1cnc[nH]1` yielded an IC50 greater than 50.1 µM.
`CC(C)(C)c1ccc(-n2ncc3c2CCCC3N)cc1` (configuration not stated) gave an IC50 of 16.4 µM.
In the case of `NC1CCN(C(=O)C2(c3cccc(F)c3)CC2)CC1`, the IC50 is reported as greater than 50.1 µM.
`CCOc1ccc2ccccc2c1CNCC1CCNCC1` showed an IC50 of 6.4 µM.
In the case of `CC(C)(C(=O)N1CCC(N)CC1)c1cccc(F)c1`, the IC50 is reported as greater than 50.1 µM.
`O=C1CCCCN1c1ccc(S(=O)(=O)NC2CC2)cc1` gave an IC50 greater than 50.1 µM.
`CN(CCNS(C)(=O)=O)CCSc1ccccc1` showed an IC50 greater than 50.1 µM.
For `Cc1ccc(NC(=O)CCCNC(=O)C2CC2)cc1`, the IC50 was greater than 50.1 µM.
`O=C(NCc1nc(C2CC2)no1)Nc1nncs1` gave an IC50 greater than 50.1 µM.
`CC1CCC(NCCO)CC1` (configuration not stated) showed an IC50 greater than 50.1 µM.
Work on `COc1ccc(CC#N)cc1S(C)(=O)=O` yielded an IC50 greater than 50.1 µM.
Work on `CCc1nc(C)cn1C(=O)Nc1ccccc1` yielded an IC50 of 5.1 µM.
`O=C(c1cccnc1)c1ncc[nH]1` gave an IC50 greater than 50.1 µM.
Work on `Cc1c(C(=O)NCC2CCN(C)C2)n(C)c2c(C)cccc12` (configuration not stated) yielded an IC50 greater than 50.1 µM.
For `Cc1nn(C)c2c(=O)n(Cc3ccc(Cl)cc3)nnc12`, the IC50 was greater than 50.1 µM.
In the case of `O=C(C[C@@H]1COC[C@H]2CN(Cc3ccncc3)C[C@@H]12)N1CCCC1`, the IC50 is reported as greater than 50.1 µM.
`NC1CCN(CC(F)F)CC1` showed an IC50 greater than 50.1 µM.
`CSCC(=O)NC(C1CCNCC1)[C@H]1C[C@@H](O)C1` (some centres not stated) showed an IC50 greater than 50.1 µM.
Work on `CCN(CCNS(=O)(=O)N1CCOCC1)C(=O)OC(C)(C)C` yielded an IC50 greater than 50.1 µM.
`COC(=O)c1cnc2[nH]nc(C)c2c1` gave an IC50 greater than 50.1 µM.
For `CCCNC(=O)c1cc(-c2cnc(N3CCCC3)nc2)cn1C`, the pIC50 was 4.78 and 4.438.
Molecule `NCCC(=O)Nc1ccccc1` has an IC50 greater than 50.1 µM.
`O=C(Nc1ccncc1)NC1CCN(c2ccccc2OC(F)F)C1` (configuration not stated) gave an IC50 of 1.87 µM.
With `CC(C)(CO)NCC(O)c1cccc(F)c1` (configuration not stated) the IC50 was greater than 50.1 µM.
`COCCNc1cc(C)nn2cnnc12` gave an IC50 greater than 50.1 µM.
`CCC(CC)(CCO)CNC(=O)c1cncc(C)c1` gave an IC50 greater than 50.1 µM.
Molecule `CC(C)n1ccc(CN2C(=O)CC(C)(C)C2=O)n1` has an IC50 greater than 50.1 µM.
In the case of `CN[C@@H]1COc2ccccc2[C@H](O)C1`, the IC50 is reported as greater than 50.1 µM.
With `Cc1cc(C(=O)Nc2cccc(C[S+](C)[O-])c2)on1` (configuration not stated) the IC50 was greater than 50.1 µM.
Work on `CCn1c(NCc2cccnc2)nc2c(C)nn(C)c2c1=O` yielded an IC50 greater than 50.1 µM.
In the case of `CCCc1nc(NCCCOCC)c2c(n1)c(C)nn2CC`, the IC50 is reported as greater than 50.1 µM.
In the case of `O=C1COC2(CCN(S(=O)(=O)C3CC3)CC2)CN1c1cccnc1`, the IC50 is reported as greater than 50.1 µM.
`Cc1ncc(C(=O)N2C[C@@H]3CCCN[C@@H]3C2)c(C)n1` gave an IC50 greater than 50.1 µM.
For `CCOCCCNc1cc(C)nn2cnnc12`, the IC50 was greater than 50.1 µM.
`Cc1cc(CN2CCC3(CC2)COC(COc2ccccn2)C3)no1` (configuration not stated) showed an IC50 greater than 50.1 µM.
In the case of `CC(C)CSc1nnc(CN2CCCC2=O)o1`, the IC50 is reported as greater than 50.1 µM.
For `Cc1nc([C@H]2CCCN2)cs1`, the IC50 was greater than 50.1 µM.
Molecule `CCn1cc(CN(C)S(=O)(=O)c2ccccc2)cn1` has an IC50 greater than 50.1 µM.
`Cc1nn(C)c2c(=O)n(C(C)C)c(NCCc3ccccc3)nc12` gave an IC50 of 36.1 µM.
For `Cc1cc2cc(C(=O)N3CC[C@@H](N)[C@H](O)C3)ccc2o1`, the IC50 was greater than 50.1 µM.
With `CNC(=O)CCN1CC(Oc2ccc(C)cc2)C1` the IC50 was greater than 50.1 µM.
Work on `COCCN(CCOC)CC(=O)N(C)C` yielded an IC50 greater than 50.1 µM.
For `Nc1cccnc1NCc1cccnc1`, the IC50 was greater than 50.1 µM.
With `Cc1cc(C(=O)Nc2cnn(CC(F)(F)F)c2)nc(N(C)C)n1` the IC50 was greater than 50.1 µM.
For `Cc1cc(-c2nc(C3CCOC3)no2)n(C)n1` (configuration not stated), the IC50 was greater than 50.1 µM.
